In PMC5059743, “Crystal structures of the human elongation factor eEFSec suggest a non-canonical mechanism for selenocysteine incorporation” (Nature Communications, 2016):
Changes are numbered by the printed parent chain.

Tests used:
Assay in all cases: isothermal titration calorimetry
Format in all cases: binding
[1] = target: T1, human eEFSec (Homo sapiens, UniProt P57772)
T1 construct: intact full-length, N-terminal 6xHis tag (pET15b, no tag removal described), E. coli Lemo21(DE3); monomer in solution; SeMet form also made for phasing
T1 sequence (P57772 1-596): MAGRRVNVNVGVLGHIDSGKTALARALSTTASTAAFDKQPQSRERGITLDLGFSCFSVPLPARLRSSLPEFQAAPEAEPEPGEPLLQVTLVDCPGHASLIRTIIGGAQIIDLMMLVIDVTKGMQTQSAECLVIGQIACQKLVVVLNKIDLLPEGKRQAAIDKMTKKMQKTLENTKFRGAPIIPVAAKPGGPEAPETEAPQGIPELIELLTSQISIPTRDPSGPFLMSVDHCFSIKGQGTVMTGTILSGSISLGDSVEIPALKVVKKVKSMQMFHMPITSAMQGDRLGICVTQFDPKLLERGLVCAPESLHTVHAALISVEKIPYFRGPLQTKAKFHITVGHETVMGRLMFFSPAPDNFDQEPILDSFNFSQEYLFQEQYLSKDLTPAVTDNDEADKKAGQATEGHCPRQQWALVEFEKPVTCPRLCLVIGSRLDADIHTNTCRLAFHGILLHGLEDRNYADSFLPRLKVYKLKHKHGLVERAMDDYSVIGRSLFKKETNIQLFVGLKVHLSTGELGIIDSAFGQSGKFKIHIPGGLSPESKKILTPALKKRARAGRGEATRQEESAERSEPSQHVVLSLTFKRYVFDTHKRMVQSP

[2] = target: T2, human eEFSec (Homo sapiens, UniProt P57772, D92A)
T2 construct: intact full-length, N-terminal 6xHis tag (pET15b, no tag removal described), E. coli Lemo21(DE3); monomer in solution; SeMet form also made for phasing
T2 sequence (P57772 1-596 D92A): T1 sequence (P57772 1-596) with D92A

[3] = target: T3, human eEFSec (Homo sapiens, UniProt P57772, T48A)
T3 construct: intact full-length, N-terminal 6xHis tag (pET15b, no tag removal described), E. coli Lemo21(DE3); monomer in solution; SeMet form also made for phasing
T3 sequence (P57772 1-596 T48A): T1 sequence (P57772 1-596) with T48A

[4] = target: T4, human eEFSec (Homo sapiens, UniProt P57772, H96A)
T4 construct: intact full-length, N-terminal 6xHis tag (pET15b, no tag removal described), E. coli Lemo21(DE3); monomer in solution; SeMet form also made for phasing
T4 sequence (P57772 1-596 H96A): T1 sequence (P57772 1-596) with H96A

Compound: Nc1nc2c(ncn2[C@@H]2O[C@H](COP(=O)(O)OP(=O)(O)NP(=O)(O)O)[C@@H](O)[C@H]2O)c(=O)[nH]1 [GDPNP]
- Kd [1]: 1200 ± 470 nM

Compound: Nc1nc2c(ncn2[C@@H]2O[C@H](COP(=O)(O)OP(=O)(O)O)[C@@H](O)[C@H]2O)c(=O)[nH]1 [GDP]
- Kd [2]: 1500 ± 130 nM
- Kd [1]: 190 ± 50 nM
- Kd [3]: 240 ± 50 nM
- Kd [4]: 1300 ± 240 nM

Compound: Nc1nc(O)c2ncn([C@@H]3O[C@H](COP(=O)(O)OP(=O)(O)C[P+]([O-])(O)O)[C@@H](O)[C@H]3O)c2n1 [GDPCP]
- Kd [1]: 1850 ± 240 nM

Compound: Nc1nc2c(ncn2[C@@H]2O[C@H](COP(=O)(O)OP(=O)(O)OP(O)(O)=S)[C@@H](O)[C@H]2O)c(=O)[nH]1 [GTPγS]
- Kd [1]: 480 ± 60 nM

Compound: Nc1nc2c(ncn2[C@@H]2O[C@H](COP(=O)(O)OP(=O)(O)OP(=O)(O)O)[C@@H](O)[C@H]2O)c(=O)[nH]1 [GTP]
- Kd [2]: 8470 ± 490 nM
- Kd [1]: 1210 ± 260 nM
- Kd [3]: 1820 ± 110 nM
- Kd [4]: 1600 ± 750 nM
